Tests used:
pepper = test: Spraying on pepper to increase a yield; type: in vivo, pepper (Hebei Jize pepper)
Protocol: Experimental method: A land area of 10 mu was adopted for each of experimental and control groups. A treatment group was sprayed with a potassium hematin solution, a control group was sprayed with heme (at the same dose concentration as the treatment group), and a blank was sprayed with clear water. On May 19 (after transplanting) and July 2 (blooming stage), an agent was sprayed at 1.5 mg/mu in the treatment and control groups, with water amounts per mu respectively as follows: 15 L and 30 L (sample concentrations: 0.1 ppm and 0.05 ppm). On September 13, 10 pepper plants with uniform growth were selected from each of the treatment group and the control group, and fruit numbers and single-fruit weights were counted. The whole field was harvested in three batches on August 30, September 13, and September 25, respectively. Yields were subjected to combined statistics and comparison, and results were as follows: […]

[1] = Stability of sample solutions in the dark/under light; type: physicochemical; settings: under light 30,000 lux, salts in water, acidic reference in 30% to 50% ethanol
Outline: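 Salt in water, or acidic reference in 30–50% aqueous ethanol, at about 10 ppm; UV absorbance scanned 200–800 nm at 0, 1, 2, 3 h, stored at 25° C dark or under 30,000 lux light. Relative content = max-peak absorbance at each time divided by 0 h value (100%).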

[2] = Dilution and pH determination for sample solutions; type: physicochemical
Protocol: Method: 0.2500 g of a sample was accurately weighed and added to a 25 mL volumetric flask, dissolved with purified water, and diluted to a specified scale to prepare a 1.00% (10,000.0 ppm) initial solution. The initial solution was diluted with purified water in different ratios to prepare a series of solutions with a concentration of 1,000.0 ppm to 0.1 ppm. A pH value of each sample was determined three times.

wheat = test: Germination of wheat and growth of seedlings; type: in vivo, wheat (Huaimai 35); settings: for Root length / Root number / Root weight / Seedling height / Seedling weight: wheat seedlings
Protocol: Method: 3 replicates were set for each treatment. 50 full seeds with a consistent size were selected each time for each sample, disinfected with sodium hypochlorite for 5 min, rinsed with clear water, and placed in a plastic box filled with 100 g of a sand. 25 mL of a prepared sample solution was poured into the plastic box, and the seeds were arranged regularly. The plastic box was covered with a lid, and then incubated in a 25° C. incubator. The germination was determined when a length of a sprout of a wheat seed exceeded a half of a diameter (long axis) of the wheat seed (determination criterion). According to the growth of wheat, the germ exposure of seeds and the number of germinated seeds were recorded every day. On day 6, 10 wheat seedlings were randomly selected, and a root length, a plant height, and a root number were determined. On day 7, a root weight and an aboveground part weight were determined. All index data was produced based on 3 replicates.

[3] = Water solubility of the prepared salts; type: physicochemical
mung bean seedlings = test: Inducing adventitious roots from hypocotyls of mung bean; type: in vivo; settings: day 7
Protocol: Test solution preparation: 8 mL of a commercially-available STANLEY universal hydroponic nutrient solution was taken and diluted with tap water to 3,200 mL (400-fold dilution) to produce a dilute nutrient solution. An appropriate amount of each of salt samples such as protoporphyrin disodium and potassium chlorhematin was weighed and prepared with the dilute nutrient solution into 0.010 ppm and 0.1 ppm sample test solutions, and 150 mL of each test solution was taken. 150 mL of the dilute nutrient solution was taken as a blank control. The test solutions and the control solution were placed in brown bottles, and the brown bottles were sealed with a black film. Mung bean seedlings with uniform growth and a seedling height of 7 cm to 8 cm were selected, and cut at 3 cm below a first true leaf node. 8 mung bean seedlings were inserted into each bottle (with roots removed) to make lower radicles soaked in a solution. Mung bean seedlings were treated at room temperature of 20° C. to 25° C. for 7 d in total, during which the solution was changed every 2 d. On day 2 to day 3 of the treatment, there was a significant difference. On day 7, the observation and determination were conducted. An average adventitious root number and an average total adventitious root length for each seedling were calculated, and results were shown in the following table: […]

[4] = 1.5 mg/mu sprayed twice (0.1 ppm and 0.05 ppm)

Compound `C=CC1=C(C)c2cc3[n-]c(cc4nc(cc5[n-]c(cc1n2)c(C)c5C=C)C(C)=C4CCC(=O)[O-])c(CCC(=O)[O-])c3C.[Cl-].[Fe+3].[K+].[K+]` [Example 10, potassium chlorhematin] has an Average fruit number (pepper; [4]) of 50.5 fruits/plant, a Single-fruit weight (pepper; [4]) of 18.5 g/fruit and a Yield per mu (pepper; [4]) of 2975.0 kg/mu. The Yield increase rate (pepper; 1.5 mg/mu sprayed twice, versus clear water) was 10.59%, the Relative content ([1]; 1 h) was 90.91% and the Relative content ([1]; 2 h) was 90.08%. For the same compound, the Relative content ([1]; 3 h) was 81.82%, the pH ([2]; 0.1 ppm in purified water) was “(6.85)” and the pH ([2]; 1.0 ppm in purified water) was “(6.90)”. The pH ([2]; 10.0 ppm in purified water) was “(7.33)”, the pH ([2]; 20.0 ppm in purified water) was “(7.45)” and the pH ([2]; 30.0 ppm in purified water) was “(7.57)”. The pH ([2]; 100.0 ppm in purified water) was “(8.10)”, the pH ([2]; 1000.0 ppm in purified water) was “(9.43)” and the pH ([2]; 10000.0 ppm in purified water) was “(10.21)”. The “Germination rate of wheat” value (wheat; 0.0025 ppm) was 94.0%, the Root length (wheat; 0.0025 ppm) was 10.01 cm and the Root number (wheat; 0.0025 ppm) was 5.1. The Root weight (wheat; 0.0025 ppm) was 0.1163 g, the Seedling height (wheat; 0.0025 ppm) was 9.42 cm and the Seedling weight (wheat; 0.0025 ppm) was 0.298 g. The “Germination rate of wheat” value (wheat; 0.0250 ppm) was 94.7%, the Root length (wheat; 0.0250 ppm) was 9.74 cm and the Root number (wheat; 0.0250 ppm) was 5.2. The Root weight (wheat; 0.0250 ppm) was 0.1143 g, the Seedling height (wheat; 0.0250 ppm) was 9.56 cm and the Seedling weight (wheat; 0.0250 ppm) was 0.286 g. For the same compound, the “Germination rate of wheat” value (wheat; 0.2500 ppm) was 97.3%, the Root length (wheat; 0.2500 ppm) was 9.15 cm and the Root number (wheat; 0.2500 ppm) was 5.3. It also gave a Root weight (wheat; 0.2500 ppm) of 0.1036 g, a Seedling height (wheat; 0.2500 ppm) of 7.51 cm and a Seedling weight (wheat; 0.2500 ppm) of 0.211 g. The solubility in water [3] was “easily soluble”, the Adventitious root number (mung bean seedlings; 0.01 ppm) was 14.85 root/seedling and the “Total adventitious root length” value (mung bean seedlings; 0.01 ppm) was 26.83 cm/seedling. For the same compound, the Adventitious root number (mung bean seedlings; 0.1 ppm) was 14.02 root/seedling and the “Total adventitious root length” value (mung bean seedlings; 0.1 ppm) was 25.21 cm/seedling.

Source: patent US20260123631A1, “NATURAL PORPHIN SALT AND USE THEREOF AS PLANT GROWTH REGULATOR AND PLANT IMMUNITY INDUCER” (NANJING BOSTEC BIOLOGICAL ENGINEERING CO., LTD, priority 2022, published 2026)
